Assay results taken from patent publication US10391070B2, “Compositions and methods for treating neurological diseases or injury” (MUSC FOUNDATION FOR RESEARCH DEVELOPMENT, priority 2012, dated 2019).
Where two headings read alike, the source gives them in different places.

Columns and labels:
Format in all cases: cell-based, mouse
HT22 cells [1] = experiment: In vitro neuroprotective activity against glutamate-induced cell death (MTS cell viability); settings: Mus musculus, read-out: Protection PC50
Procedure: (§1) The HT22 neuronal cell line is a subclone of HT4, derived from the mouse hippocampus (Morimoto and Koshland, 1990). […] HT22 cells were used. The cells were grown in Dulbecco's Modified Eagle's medium (DMEM/high glucose) supplemented with 10% fetal bovine serum (Hyclone) and 5 mL Antibiotic-Antimycotic (Amphotericin B, Penicillin, and Streptomycin; Invitrogen) at 37° C. in 5% CO2.
(§2) Cell viability was assessed by the ability of the viable cells to metabolize 3-(4,5-dimethylthiazol-2-yl)-5-(3-carboxymethoxyphenyl)-2(4-sulfophenyl)2-H-tetrazolium, inner salt (MTS), as described previously (Cory et al., 1991). The metabolism of tetrazolium salts is often used to measure cellular proliferation, but in the system used here, it has been previously shown to correlate well with cell viability as determined by trypan blue exclusion and colony-forming assays (Davis and Maher, 1994). Briefly, HT-22 cells were seeded onto 96-well plates at 5.0×10^3 cells per well in 75 μL of medium and maintained at 37° C. in 5% CO2 overnight prior to the initiation of experimental treatments. For glutamate toxicity testing, cells were subsequently treated with 25 μL of medium containing glutamate (monosodium glutamate, Sigma, 1 M stock concentration in media, to achieve a final concentration of 10 mM) plus inhibitors (stock in DMSO) and maintained at 37° C. in 5% CO2. For t-BuOOH toxicity testing, cells were subsequently treated with 25 μL of medium containing t-BuOOH (Sigma, 10 mM stock concentration, to achieve a final concentration of 50 μM) plus inhibitors (stock in DMSO) and maintained at 37° C. in 5% CO2 for 3 hours, after which the media was removed, cells washed gently with HBSS, the media replaced with standard culture media, and the cells returned to incubation at 37° C. in 5% CO2. For both glutamate and t-BuOOH treatments, 10 μl of MTS solution was added to each well 24 hrs after initial treatment, and the cells were maintained in growth medium for 2 h at 37° C. Absorbance at 490 nm was subsequently measured by a SpectraMax 190 plate reader (Molecular Devices). The growth medium without cells in the presence of MTS solution was used as solution background and untreated cells were considered the controls. Cell viability was calculated as a percentage compared with untreated controls. EC50 determinations were based on 12-point titrations using GraphPad Prism, and each experiment was repeated at least four times. Morphology of HT22 cells following treatments was determined by phase-contrast microscopy. Digital images of cells grown on cell culture plates were captured at 10× magnification.
The neuroprotective properties of VK and its derivatives were estimated through their protective effects against cell death in mouse neuronal HT22 cells induced by exposure to high levels of glutamate, which recapitulates a hallmark of the extracellular environment found in several neurodegenerative diseases and CNS injuries and is a well established model of neuronal oxidative stress. This investigation began by comparing the relative abilities of the two predominant naturally occurring forms of VK, VK1 and VK2, to prevent oxidative cell death. […] Several 1,4-naphthoquinones with various substitutions at the 2′ and 3′ positions were tested to determine the minimum structural requirement of the system and what the optimum scaffold for future developmental efforts and biological validation would be (FIG. 1B and Table 1). […] Substitution by a single methyl group at the 2′ position (VK3) improves the compound's ability to protect against cell death. Various other simple substituents at the 2′ and 3′ positions give the naphthoquinone structure the ability to prevent oxidative cell death at nanomolar concentrations (Table 1 and FIG. 16).

[2] = In vitro neurotoxicity without glutamate (MTS cell viability); settings: mouse, HT22 cells without glutamate, 24 hrs, MTS, concentration producing 50% toxicity, read-out: Toxicity TC50
Procedure: as §1, §2

HT22 cells [3] = experiment: as above; settings: for Safety Index TC50/PC50: HT22 cells; for CC50: HT22 cells without glutamate, 24 hrs, MTS, concentration producing 50% toxicity, read-out: Toxicity TC50
Procedure: as §1, §2

[4] = HT-22, HT22 cells, 10 mM glutamate, 24 hrs, MTS, concentration producing 50% protection
[5] = HT22 neuronal cells (without glutamate)

Row | SMILES | EC50 (HT22 cells [1]; [4]) | CC50 at 24 h [2, 5] | Safety Index TC50/PC50 (HT22 cells [3]) | CC50 (HT22 cells [3]) | EC50 (HT22 cells [1]; HT-22, 24 h) | CC50 at 24 h [2]
1 | O=C(O)c1cc(=O)c2ccccc2o1 | > 1000 nM | > 100000 nM | – | – | – | –
2 | O=C(O)c1coc2ccccc2c1=O | > 1000 nM | > 100000 nM | – | – | – | –
3 | O=C(Nc1ccccc1)c1cc(=O)c2ccccc2o1 [4-oxo-N-phenyl-4H-chromene-2-carboxamide] | > 1000 nM | > 100000 nM | – | – | – | –
4 | O=C(Nc1ccccc1)c1coc2ccccc2c1=O [4-oxo-N-phenyl-4H-chromene-3-carboxamide] | > 1000 nM | > 100000 nM | – | – | – | –
5 | O=C1C=CC(=O)c2ccccc21 [Compound 1a, 1,4-naphthoquinone, reference compound] | 1540 nM | – | 12 | 19000 nM | – | –
6 | CC1=C(C)C(=O)c2ccccc2C1=O [Compound 1c] | 118 nM | – | 254 | 30000 nM | – | –
7 | NC1=CC(=O)c2ccccc2C1=O [Compound 1d, 2-amino-1,4-naphthoquinone] | – | – | 803 | 49000 nM | 61 nM | –
8 | CC1=C(N)C(=O)c2ccccc2C1=O [Compound 1e, 2-amino-3-methyl-1,4-naphthoquinone] | 1740 nM | – | 31 | 54000 nM | – | –
9 | O=C(O)C1=CC(=O)c2ccccc2C1=O [Compound 1f] | 716 nM | – | 140 | > 100000 nM | – | –
10 | O=C1C=C(O)C(=O)c2ccccc21 [Compound 1g] | – | – | 100 | > 100000 nM | 1000 nM | –
11 | CNC1=CC(=O)c2ccccc2C1=O [Compound 2a, 2-(methylamino)naphthalene-1,4-dione] | 1350 nM | – | 74 | > 100000 nM | – | –
12 | CCNC1=CC(=O)c2ccccc2C1=O [Compound 2b, 2-(ethylamino)naphthalene-1,4-dione] | 761 nM | – | 106 | 81000 nM | – | –
13 | CC(C)NC1=CC(=O)c2ccccc2C1=O [Compound 2d, 2-(isopropylamino)naphthalene-1,4-dione] | 1700 nM | – | 27 | 46000 nM | – | –
14 | CCCNC1=CC(=O)c2ccccc2C1=O [Compound 2e, 2-(propylamino)naphthalene-1,4-dione] | 328 nM | – | 91 | 30000 nM | – | –
15 | O=C1C=C(NC2CCCC2)C(=O)c2ccccc21 [Compound 2f, 2-(cyclopentylamino)naphthalene-1,4-dione] | 409 nM | – | 108 | 44000 nM | – | –
16 | O=C1C=C(NCC2CCCCC2)C(=O)c2ccccc21 [Compound 2g, 2-((cyclohexylmethyl)amino)naphthalene-1,4-dione] | 54 nM | – | 1,852 | > 100000 nM | – | –
17 | O=C1C=C(Nc2ccccc2)C(=O)c2ccccc21 [Compound 2i, 2-(phenylamino)naphthalene-1,4-dione] | – | – | 109 | 7000 nM | 64 nM | –
18 | CN(Cc1ccccc1)C1=CC(=O)c2ccccc2C1=O [Compound 2k, 2-(benzyl(methyl)amino)naphthalene-1,4-dione] | 128 nM | – | 781 | > 100000 nM | – | –

Row | SMILES | EC50 (HT22 cells [1]; [4]) | CC50 at 24 h [2, 5] | Safety Index TC50/PC50 (HT22 cells [3]) | CC50 (HT22 cells [3]) | EC50 (HT22 cells [1]; HT-22, 24 h) | CC50 at 24 h [2]
19 | O=C1C=C(NCCc2ccccc2)C(=O)c2ccccc21 [Compound 2l] | 584 nM | – | 171 | > 100000 nM | – | –
20 | O=C1C=C(NCc2ccncc2)C(=O)c2ccccc21 [Compound 2m, 2-((pyridin-4-ylmethyl)amino)naphthalene-1,4-dione] | 72 nM | – | 1,111 | 80000 nM | – | –
21 | O=C1C=C(NCc2cccnc2)C(=O)c2ccccc21 [Compound 2n, 2-((pyridin-3-ylmethyl)amino)naphthalene-1,4-dione] | 215 nM | – | 172 | 37000 nM | – | –
22 | O=C1C=C(NCc2ccccn2)C(=O)c2ccccc21 [Compound 2o, 2-((pyridin-2-ylmethyl)amino)naphthalene-1,4-dione] | 933 nM | – | 54 | 50000 nM | – | –
23 | O=C1C=C(NCc2ccc(Cl)cc2)C(=O)c2ccccc21 [Compound 2p, 2-((4-chlorobenzyl)amino)naphthalene-1,4-dione] | 59 nM | – | 1,695 | > 100000 nM | – | –
24 | Cc1ccc(CNC2=CC(=O)c3ccccc3C2=O)cc1 [Compound 2r, 2-((4-methylbenzyl)amino)naphthalene-1,4-dione] | – | – | 1,515 | > 100000 nM | 66 nM | –
25 | COc1ccc(CNC2=CC(=O)c3ccccc3C2=O)cc1 [Compound 2s, 2-((4-methoxybenzyl)amino)naphthalene-1,4-dione] | 114 nM | – | 877 | > 100000 nM | – | –
26 | COC(=O)c1ccc(CNC2=CC(=O)c3ccccc3C2=O)cc1 [Compound 2t, methyl 4-(((1,4-dioxo-1,4-dihydronaphthalen-2-yl)amino)methyl)benzoate] | 232 nM | – | 431 | > 100000 nM | – | –
27 | O=C1C=C(NCc2cccc(C(F)(F)F)c2)C(=O)c2ccccc21 [Compound 2u, 2-((3-(trifluoromethyl)benzyl)amino)naphthalene-1,4-dione] | 45 nM | – | 2,222 | > 100000 nM | – | –
28 | O=C1C=C(NCc2ccc(Cl)c(Cl)c2)C(=O)c2ccccc21 [Compound 2v, 2-((3,4-dichlorobenzyl)amino)naphthalene-1,4-dione] | 46 nM | – | 2,174 | > 100000 nM | – | –
29 | CC(=O)NC1=CC(=O)c2ccccc2C1=O [Compound 3a, N-(1,4-dioxo-1,4-dihydronaphthalen-2-yl)acetamide] | 616 nM | – | 162 | – | – | > 100000 nM
30 | CCC(=O)NC1=CC(=O)c2ccccc2C1=O [Compound 3b, N-(1,4-dioxo-1,4-dihydronaphthalen-2-yl)propionamide] | 760 nM | – | 105 | – | – | 80000 nM
31 | COC(=O)NC1=CC(=O)c2ccccc2C1=O [Compound 3c, methyl(1,4-dioxo-1,4-dihydronaphthalen-2-yl)carbamate] | 69 nM | – | 72 | – | – | 5000 nM
32 | CC(C)C(=O)NC1=CC(=O)c2ccccc2C1=O [Compound 3d, N-(1,4-dioxo-1,4-dihydronaphthalen-2-yl)isobutyramide] | > 1000 nM | 8000 nM | 0 | – | – | –
33 | O=C1C=C(NC(=O)C2CCCC2)C(=O)c2ccccc21 [Compound 3e, N-(1,4-dioxo-1,4-dihydronaphthalen-2-yl)cyclopentanecarboxamide] | > 1000 nM | 6000 nM | 0 | – | – | –
34 | O=C1C=C(NC(=O)C2CCCCC2)C(=O)c2ccccc21 [Compound 3f, N-(1,4-dioxo-1,4-dihydronaphthalen-2-yl)cyclohexanecarboxamide] | 275 nM | 14000 nM | 51 | – | – | –
35 | O=C(NC1=CC(=O)c2ccccc2C1=O)c1ccccc1 [Compound 3g, N-(1,4-dioxo-1,4-dihydronaphthalen-2-yl)benzamide] | – | 17000 nM | 34 | – | 500 nM | –
36 | Cc1ccc(C(=O)NC2=CC(=O)c3ccccc3C2=O)cc1 [Compound 3h, N-(1,4-dioxo-1,4-dihydronaphthalen-2-yl)-4-methylbenzamide] | 382 nM | 24000 nM | 63 | – | – | –
